Consider one compound from patent publication US20230045151A1, “COMPOSITIONS AND METHODS” (MONASH UNIVERSITY, priority 2020, published 2023).

The assay deals with lung DCs. Nature of the assay: In vivo tracking of DCs after intranasal fluorescently labelled HDM. Conditions: L-tyrosine-treated mice, intranasal HDM-AF647. Details: species or system mouse. On the procedure: Mediastinal lymph nodes were filtered through a 40 μm cell strainer, washed with PBS supplemented with 1% fetal bovine serum and 2 mM EDTA (Invitrogen) (MACS buffer). Lungs were finely cut with scissors, digested with Collagenase IV (Gibco™) in Iscove's modified Dulbecco's medium (IMDM, Gibco™) for 50 min at 37° C. and processed as the lymph nodes. Cell counts were determined with Coulter Counter and […] were stained with freshly prepared antibody mix in MACS buffer for 20 minutes at 4° C. in a 96-well round-bottom plates (Costar). Dendritic cells were identified using monoclonal antibodies against CD11c-phycoerythrin (PE)/Cy7 (Biolegend, cat nr 117318; diluted 1:400 in MACS buffer), SiglecF-Alexa Fluor (AF) 647 (BD Biosciences™, 562680; 1:400) and MHC-II-AF700 (Biolegend, 107622, 1:800). DC activation was assessed using antibodies against PD-L2-PE (Biolegend, 107205; 1:200), CD80− Brilliant Violet (BV)-605 (Biolegend, 104729; 1:200) and CD86-BV650 (Biolegend, 105035; 1:200). T helper cells were identified using antibodies against CD3c-Pacific Blue (PB) (Biolegend, 100214; 1:800) and CD4− PerCP-Cy5.5 (Biolegend, 100434; 1:800). Activated T helper cells were identified using anti-CD44-PE antibody (BD Biosciences™, 553134, 1: 400) A regulatory subset of T helper cells (Tregs) was identified with the addition of anti-CD25-AF700 (Biolegend, 102024; 1:200) and anti-Foxp3-AF647 (Biolegend, 126408; 1:200) antibodies. For the latter, an intracellular staining was performed, where cells were incubated with anti-Foxp3 antibody diluted in 0.5% saponin from Quillaja bark (Sigma-Aldrich) for 40 minutes at 4° C. B cells were identified with anti-CD19-PE/Cy7 (eBioscience, 25-0193; 1:200) and anti-B220-FITC (Biolegend, 103206; 1:200). When indicated, HEL and HDM were labelled with Alexa Fluor 647 antibody labelling kit (Invitrogen™) and separated from the unlabelled dye with the use of PD-10 desalting columns (GE Healthcare). […] Samples were analyzed with FlowJo 10.4.2 software (Tree Star Inc., Ashland, Oreg.). […]

Consider `N[C@@H](Cc1ccc(O)cc1)C(=O)O` [L-tyrosine], for which the “activation of lung DCs (surface CD80, CD86, PD-L2)” value is listed as “impairment”; the “antigen (HDM) uptake by lung DCs” value is reported as “modest effect”; the “migratory capacity of DCs (frequency of HDM+ DCs in the draining LNs)” value is given as “decreased”.
